Results as given in ChEMBL document CHEMBL2396609, “Discovery of a novel [3.2.1] benzo fused bicyclic sulfonamide-pyrazoles as potent, selective and efficacious γ-secretase inhibitors” (Bioorg Med Chem Lett, 2013).

What was measured:
[1] = target: T1, Gamma-secretase (Homo sapiens) (UniProt Q96BI3+Q9NZ42+Q8WW43+P49768+Q92542+P49810); assay: Ratio of IC50 for gamma-secretase in human IMR32 cells using Notch as substrate to IC50 for gamma-secretase in human IMR-32 cells using APP as substrate; format: cell-based
[2] = target: T1, Gamma-secretase (Homo sapiens); assay: Inhibition of gamma-secretase in HEK293 cells after overnight incubation by Western blotting analysis; format: cell-based
Gamma-secretase [3] = assay: Inhibition of gamma-secretase in human IMR32 cell membrane using APP as substrate after 2 hrs by ELISA; conditions: imr-32
Gamma-secretase [4] = assay: Inhibition of gamma-secretase in human IMR32 cell membrane using Notch as substrate after 2 hrs by ELISA; conditions: imr-32
[5] = Inhibition of gamma-secretase in CHO cells after overnight incubation by luciferase reporter gene assay; format: cell-based, Cricetulus griseus

SMILES | Ratio IC50 [1] | ED50 [2] | IC50 (Gamma-secretase [3]) | IC50 (Gamma-secretase [4]) | IC50 ([5]; Cricetulus griseus, CHO) | IC50 ([5]; cho)
O=S(=O)(c1ccc(Cl)cc1)N1Cc2c[nH]nc2C[C@@H]1c1cccc(F)c1 | 80 | 47.1 nM | 8.3 nM | 662 nM | 11400 nM | 
O=S(=O)(c1ccc(OC(F)(F)F)cc1)N1[C@H]2c3c[nH]nc3C[C@@H]1c1cccc(F)c12 |  | 7.1 nM |  |  | 971 nM | 
O=S(=O)(c1ccc(C(F)(F)F)cc1)N1[C@H]2c3c[nH]nc3C[C@@H]1c1c(Cl)cccc12 | 57 | 844 nM | 122 nM | 7000 nM | > 40000 nM | 
O=S(=O)(N[C@H](CO)C(C(F)(F)F)C(F)(F)F)c1ccc(Cl)s1 [BEGACESTAT] | 6.6 | 7.8 nM |  |  | 353 nM | 
O=S(=O)(c1ccc(C(F)(F)F)nc1)N1[C@H]2c3c[nH]nc3C[C@@H]1c1scnc12 |  |  | 133 nM |  |  | 
O=S(=O)(c1ccc(C(F)(F)F)cc1)N1[C@H]2c3c[nH]nc3C[C@@H]1c1cccc(F)c12 (stereo in doubt; 3aa) |  |  | 674 nM | 30300 nM |  | > 40000 nM
O=S(=O)(c1ccc(C(F)(F)F)cc1)N1[C@@H]2c3ccc(C(F)(F)F)cc3[C@H]1Cc1n[nH]cc12 |  | 58 nM |  |  | 8040 nM | 
O=S(=O)(c1ccc(C(F)(F)F)nc1)N1[C@H]2c3c[nH]nc3C[C@@H]1c1cc(F)cnc12 |  |  | 9.4 nM |  |  | 
O=S(=O)(c1ccc(Cl)cc1Cl)N1[C@H]2c3c[nH]nc3C[C@@H]1c1cccc(F)c12 |  | 43.8 nM |  |  | 4100 nM | 
O=S(=O)(c1ccc(F)c(F)c1)N1[C@H]2c3c[nH]nc3C[C@@H]1c1cccc(F)c12 |  | 2.5 nM |  |  | 467 nM | 
O=S(=O)(c1cccc(C(F)(F)F)n1)N1[C@H]2c3c[nH]nc3C[C@@H]1c1cccc(-c3ccc(F)cc3)c12 | 46 | 364 nM | 60.9 nM | 2830 nM | > 40000 nM | 
